US8729280B2, “Five crystal forms, methods of preparation, pharmaceutical compositions and applications of XLF-III-43” (Institute of Mataria Medica, Chinese Academy of Medical …, priority 2008, dated 2014)

Legend:
[1] = tested on: acute renal function injury in mice induced by Cisplatin; test: Effects of different crystalline forms of XLF-III-43 on acute renal function injury in mice induced by Cisplatin (serum BUN and Scr); format: in vivo, Male Kunming mice; conditions: for BUN / BUN reduction (%) / Scr / Scr reduction (%): dose 25.0 × 3 mg/kg
Description: Objective: To observe the effects of different crystal forms of XLF-III-43 on acute renal function injury in mice induced by Cisplatin
Reagents: crystalline form I, II and V of XLF-III-43, all were prepared into suspensions with 0.5% sodium carboxymethylcellulose. Positive control: Losartan potassium, ATIRA Hangzhou Merck Sharp & Dohme Pharmaceutics Company, lot number: S1241. Crude drug of Cisplatin (DDP): Supplied by Shandong Qilu Pharmaceutics Company.
Animal: Male Kunming mice weighing 16 to 22 g were purchased from Institute of Laboratory Animal Sciences, Chinese Academy of Medical Sciences (Type II, Certificate No: SCXK-Jing 2000-0006). All the mice were feeded in standard breeding boxes, 5 per box, kept these boxes dry and clean, ventilate and sterilize animal room at fixed time, lightening time: 8:00-20:00, room temperature: 20-26° C., humidity: 40-70%, forage: clean breeding forage, bought from Animal Center of Academy of Military Medical Sciences, Certificate No: SCXX-(army) 2002-001.
Serum biochemistry kit: Beijing Beihua Refined Chemical Limited-liability Company
Apparatus: WELLSCAN MK3 Scanner, Germent SIGMA3K 15 Centrifuge, TGL-16G Freezing Centrifuge, Shanghai Anting Scientific Instrument Factory, Votex, American Bohemia N.Y Company.
Animal grouping: According to body weights, male Kunming mice weighing 18 to 22 grams were randomly divided into […] groups: control group, Cisplatin group (model group), Losartan potassium group, groups of three crystal forms of XLF-III-43, n=8 for each group.
Modeling and administrating: XLF-III-43 were dissolved in 0.5% sodium carboxymethylcellulose, Losartan potassium and Cisplatin were dissolved in physiological saline. Since two days before giving Cisplatin by peritoneal injection, Losartan potassium group and groups of three crystal forms of XLF-III-43 were intraperitoneally administered respectively. Control animals received an equal volume of physiological saline.
Serum parameters detecting: Blood samples were collected from the orbital venous plexus at day 3, 5, and 7 after injecting Cisplatin. Serum BUN and Scr were detected by serum biochemistry kit.

[2] = Influences of different crystalline forms on blood drug levels in rats (pharmacokinetic study, HPLC of plasma); format: in vivo
Description: 1. Crystal Samples: crystalline form II and V of XLF-III-43, dispersant agent of crystalline form II (obtained by comminuting crystalline form II and V of XLF-III-43).
2. Methodology study of detecting blood drug level
(1) Experimental Conditions:
HPLC: waters 2690 chromatography system, 2487 UV detector, Milnicousamidem 32 chromatography management system. Column: 4.6×250 mm Spherisorb C18 5 μm; flow rate: 1.0 ml/min; column temperature: 25° C.; detection wavelength: 330 nm. After treated by solid phase extraction, plasma samples were directly injected and analyzed.
(4) Recovery experiment: extraction recoveries (greater than 75%) meet the requests that SFDA issued on methods of pharmacokinetic study.
(5) Sensitivity: minimum detectable amount was 2 ng/ml, the minimum limit of quantification was 5 ng/ml.

[3] = 3 days after injecting Cisplatin
[4] = 5 days after injecting Cisplatin
[5] = 7 days after injecting Cisplatin
[6] = one-time orally administered at 30 mg/kg, preliminary pharmacokinetic

3-(3′-carboxy-4′-hydroxy-anilino-carbo-)-6-nitro-7-hydroxy-8-methyl-coumarin [crystalline form V of XLF-III-43]
dose-effect relationship of renal function protective effect ([1]; Cisplatin model): good dose-effect relationship | renal function protective effect (serum Scr and BUN) ([1]; Cisplatin model, compared among treated groups (crystalline form I, II, V, Losartan potassium)): best renal function protective effect | blood/plasma concentration ([2]; oral, FIG. 22, within a certain period of time): higher blood concentration than crystalline form II of XLF-III-43

CCCCc1nc(Cl)c(CO)n1Cc1ccc(-c2ccccc2-c2nn[nH]n2)cc1 [Losartan]
BUN [1, 3]: 30.58 ± 4.19 mg/dL | BUN reduction (%) [1, 3]: −1.9% | Scr [1, 3]: 1.41 ± 1.00 mg/dL | Scr reduction (%) [1, 3]: 22.4% | BUN [1, 4]: 31.75 ± 9.32 mg/dL | BUN reduction (%) [1, 4]: 24.6% | Scr [1, 4]: 1.16 ± 0.48 mg/dL | Scr reduction (%) [1, 4]: 39.3% | BUN [1, 5]: 30.32 ± 2.89 mg/dL | BUN reduction (%) [1, 5]: 23.8% | Scr [1, 5]: 1.74 ± 0.31 mg/dL | Scr reduction (%) [1, 5]: 34.7%

3-(3′-carboxy-4′-hydroxy-anilino-carbo-)-6-nitro-7-hydroxy-8-methyl-coumarin [XLF-III-43]
time within which it could be detected in plasma ([2]; one-time orally administered at 30 mg/kg): ≤ 36 h | detection in plasma at 48 h ([2]; one-time orally administered at 30 mg/kg, 48 h): could not be detected | maximum plasma concentration Cmax [2, 6]: 2000 ng/mL | peak time (Tmax) [2, 6]: 30 min
